Measured values from patent US11207285B2, “Diabetes treatment regimens using alpha, alpha-substituted long-chain amphipathic carboxylates” (SYNDROMEX LTD., priority 2016, dated 2021).
Values joined by “and” are separate entries in the source; they are usually repeats but may differ in a detail not shown here. Equal values may be shown once.

Tests used:
[1] = test system: Type 2 Diabetes Mellitus (T2D) patients; assay: 4-week M16αα study in T2D patients, efficacy; assay type: in vivo, human; conditions: for Comp ISI / HP ISI / HbA1c Day 90 - extrapolated / IR / HbA1c Day 28: after
Description: Exploratory, double-blind, randomized, placebo-controlled study, to evaluate the safety, efficacy and pharmacokinetics of 4-week M16αα treatment of Type 2 Diabetes Mellitus (T2D) patients. T2D patients were either non-treated or receiving ongoing treatment with metformin alone or in combination with other standard-of-care (SoC) oral or parenteral antidiabetic drug/s. T2D patients, non-treated or treated with SoC antidiabetic drugs as outlined below, were screened for eligibility (inclusion/exclusion according to criteria detailed below), followed by being randomly allocated to receive once daily either add-on M16αα (40 mg M16αα plus 130 mg microcrystalline cellulose in gelatin capsules) or add-on placebo (130 mg microcrystalline cellulose in gelatin capsules), in addition to the SoC anti-diabetic treatment they have been receiving regularly. One patient was not under SoC anti-diabetic drug treatment. Sixteen (16) patients were randomized to M16αα treatment and 3 patients were randomized to placebo treatment. Patients randomized to M16αα treatment were dosed for 28 days with add-on M16αα in double-blinded manner, followed by 4-week recovery period using add-on placebo in a single-blinded manner. Patients randomized to placebo treatment were dosed for 28 days with add-on placebo in double-blinded manner. Cohort 1 included 6 uncontrolled T2D patients (HbA1c>7.3%), 5 treated for their hyperglycemia by metformin only (patients 101, 102, 103, 105, 106), and one naïve patient (not under SoC anti-diabetic treatment, patient 108). Cohort 2 included 6 T2D patients (HbA1c>7.3%) (patients 202, 203, 205, 206, 207, 210) treated for their hyperglycemia by a variety of SoC anti-diabetic drug/s except insulin/insulin analogs (metformin plus sulphonylurea and/or DPP4 inhibitor and/or GLP1 analog and/or SGLT2 inhibitor). Cohort 3 included 4 T2D patients (HbA1c>7.3%) treated for their hyperglycemia by basal insulin analogs and a variety of anti-diabetic drugs (metformin and/or sulphonylurea and/or DPP4 inhibitor and/or GLP1 analog and/or SGLT2 inhibitor). During the study period the subjects underwent physical examination, clinical pathology, hematology, urinalysis, lipid profile, HbA1C, continuous glucose monitoring (CGM) and an oral glucose tolerance test (OGTT) (75 g glucose; glucose, insulin, c-peptide; 0, 30, 60, 120, 180 min) prior to dosing, upon end of M16αα treatment, and following the recovery period (EOS visit). HbA1c, Continuous glucose monitoring (CGMS), OGTT (Glucose/Insulin/C-peptide), HOMA, Hepatic Insulin Sensitization Index (HP ISI), Composite insulin sensitization index (Comp ISI), Insulin resistance (IR), plasma lipid profile (Triglycerides, Cholesterol, LDL-C, VLDL-C, HDL-C, non-HDL-C, apoB), hsCRP, Fibrinogen. All measured variables and derived parameters were listed individually and tabulated by descriptive statistics. For descriptive statistics summary tables were provided giving sample size, means, standard deviations and 95% CI (Confidence Interval) or frequency with percentage according to the scale of the variable. Regarding small sample size, non-parametric methods were conducted: Differences between end of drug dosing and baseline for each efficacy parameter were analyzed using the Wilkcoxon matched-pairs signed-ranks test. Differences between M16αα-treated and placebo groups were analyzed for each efficacy parameter using the Mann-Whitney two-sample U-test. Drug: 40 mg 2,2,15,15-tetramethylhexadecane-dioic acid (M16αα) per day, in a gelatin capsule. This daily dose of M16αα is based on safety and PK considerations in a previous, single-dose study in healthy volunteers and pre-clinical data. Administration: oral, before breakfast, with 240 ml water, for both drug and placebo. M16αα or placebo were administered orally for 28 consecutive days, followed by additional 28 days of placebo. End of Study (EOS) visit took place about 4 weeks after last dose of M16αα administered. […]

[2] = molecular target: mammalian target of rapamycin (mTORC1) (Homo sapiens, UniProt P42345); assay: modulation of mTORC1 activity
rats = conditions: WO98/30530, cited from earlier work
[3] = test system: mitochondrial permeability transition pore (PTP); assay: gating of mitochondrial PTP; conditions: mild decoupling of mitochondrial oxidative phosphorylation
[4] = Cohort 1 single patients 101, 102, 106 on metformin only, add-on 40 mg/day
[5] = Cohort 2 single patients 202, 205, 206 on SoC drugs except insulin, add-on 40 mg/day
[6] = Cohort 3 single patients 301-304 on basal insulin analogs and other drugs, add-on 40 mg/day
[7] = patient 108, no ongoing anti-diabetic treatment, 40 mg/day
[8] = baseline 1.0, all patients on add-on M16αα
[9] = estimated by linear extrapolation from 28 d
[10] = weighted average, all patients on add-on M16αα

CC(C)(CCCCCCCCCCCCC(C)(C)C(=O)O)C(=O)O [M16αα, 2,2,15,15-tetramethyl-hexadecane-1,16-dioic acid]
Continuous glucose monitoring [CGM(<180 mg %)], Change in Baseline: Increase by ([1]; % of time with glucose lower than 180 mg %, baseline 71 ± 25%): Increase by 8.4% | insulin sensitizing activity compared with add-on pioglitazone ([1]; M16αα added-on to metformin): surpasses that reported for add-on Pio | diabetic profile ([1]; T2D patient not under anti-diabetic SoC, low dose): significantly improved diabetic profile | prospective glucose-lowering activity compared with SoC oral anti-diabetic drugs ([1]; add-on M16αα): surpasses those reported for current SoC oral anti-diabetic drugs | Comp ISI [1, 4]: 19.17 and 5.0 and 10.10 | HP ISI [1, 4]: 9.5 and 2.3 and 2.1 | HbA1c Day 90 - extrapolated [1, 4]: 5.3 and 5.9 and 5.4 | IR [1, 4]: 0.4 and 0.6 and 0.5 | HbA1c Day 28 ([1]; Cohort 1 single patients 101, 102, 106 on metformin only, add-on 40 mg/day oral 28 d): 6.7 and 6.9 and 6.8 | Comp ISI [1, 5]: 2.2 and 4.7 and 5.5 | HP ISI [1, 5]: 0.4 and 0.6 and 1.1 | HbA1c Day 90 - extrapolated [1, 5]: 6.0 and 8.1 and 4.1 | IR [1, 5]: 2.2 and 1.8 and 0.9 | HbA1c Day 28 ([1]; Cohort 2 single patients 202, 205, 206 on SoC drugs except insulin, add-on 40 mg/day oral 28 d): 6.8 and 8.1 and 7.1 | Comp ISI [1, 6]: 4.6 and 6.9 and 6.3 | HP ISI [1, 6]: 0.79 and 0.88 and 1.33 and 1.41 | IR [1, 6]: 1.4 and 1.1 and 0.8 and 0.7 | HbA1c Day 28 ([1]; Cohort 3 single patients 301-304 on basal insulin analogs and other drugs, add-on 40 mg/day oral 28 d): 8.17 and 7.33 and 7.52 and 8.73 | Comp ISI [1, 7]: 5.8 | HP ISI [1, 7]: 1.6 | HbA1c Day 90 - extrapolated [1, 7]: 7.6 | IR [1, 7]: 0.6 | HbA1c Day 28 ([1]; patient 108, no ongoing anti-diabetic treatment, 40 mg/day oral 28 d): 7.6 | Composite insulin sensitization index (CompISI), Change in Baseline: Increase by [1, 8]: Increase by 2.04-fold | HOMA insulin resistance (HOMAIR), Change in Baseline: Increase by [1, 8]: Increase by 0.59-fold | Hepatic insulin sensitization index (HepISI), Change in Baseline: Increase by [1, 8]: Increase by 2.50-fold | HOMA % B, Change in Baseline: Decrease by ([1]; baseline 1.0, beta-cell rest): Decrease by 0.81-fold | Bodyweight, Change in Baseline: Decrease by ([1]; baseline 88 ± 9 kg): Decrease by 0.6 kg | Σglucose (OGTT 0, 30, 60, 120, 180 min), Change in Baseline: Decrease by ([1]; baseline 100, all patients on add-on M16αα): Decrease by 7.8% | Σc-peptide (OGTT 0, 30, 60, 120, 180 min), Change in Baseline: Decrease by ([1]; baseline 100, beta-cell rest): Decrease by 17% | Hypertension, Change in Baseline ([1]; baseline 136 ± 13/75 ± 7): Decrease in 5 patients | Fasting blood glucose (FBG), Change in Baseline: Decrease by ([1]; baseline 159 ± 56 mg/dL, all patients on add-on M16αα): Decrease by 11.7% | Plasma triglycerides, Change in Baseline: Decrease by ([1]; baseline 169 ± 95 mg/dL): Decrease by 18% | HbA1C (%) (Estimated 90 d), Change in Baseline: Decrease by [1, 9]: Decrease by 0.96-1.44% | HbA1C (Estimated 90 d), Change in Baseline: Decrease [1, 9]: (10.6-15.8 mmol/mol) | HbA1C (Estimated 90 d), Change in Baseline: Decrease as eAG [1, 9]: (eAG 28-42 mg/dL) | effectiveness as add-on drug ([1]; patients under anti-diabetic SoC): effective as an add-on drug | HbA1C (28 d), Change in Baseline: Decrease [1, 10]: (5.28 mmol/mol) | HbA1C (28 d), Change in Baseline: Decrease as eAG [1, 10]: (eAG 14 mg/dL) | HbA1C (%) (28 d), Change in Baseline: Decrease by ([1]; weighted average, all patients on add-on M16αα 40 mg/day, baseline 7.96 ± 0.81): Decrease by 0.48% | mTORC1 activity [2]: suppressing | plasma lipids (rats; hyperlipidemic animal models): normalization of plasma lipids | plasma triglycerides and cholesterol (rats; normolipidemic animals): decrease in plasma triglycerides and cholesterol | hypolipidemic activity (rats; rats): potent hypolipidemic agent | gating of mitochondrial PTP [3]: induces low-conductance gating of mitochondrial PTP
